Patent publication US20240400998A1, “BLASTOCYST-LIKE CELL AGGREGATE AND METHODS” (IMBA - INSTITUT FÜR MOLEKULARE BIOTECHNOLOGIE GMBH, priority 2021, published 2024)
Entries after “also recorded” stand apart in the source; their conditions may differ.

Columns and labels:
Format in all cases: cell-based, human
naive hPSC aggregates = assay: Induction of blastoids and trophospheres from naive hPSC aggregates in microwell arrays (yield counted by morphology); conditions: for effect on blastoid formation / yield of blastoids: naive hPSC aggregates in PALY medium complemented with the molecule every day, 0 to 96 hours; for morphology of hPSC aggregates upon stimulation: stimulation of hPSC aggregates with LPA or NAEPA; for formation of blastoids versus trophospheres: 3 μM SC144 in PALLY medium for 4 days (0 to 96 hours)
Protocol: Naive hPSCs or primed hPSCs cultures were treated with Accutase (Biozym, B423201) at 37° C. for 5 min, followed by gentle mechanical dissociation with a pipette. After centrifugation, the cell pellet was resuspended in PXGL medium, supplemented with Y-27632 (10 μM, MedChemExpress, HY-10583). To exclude MEF, the cell suspension was transferred onto gelatin coated plates and incubated at 37° C. for 70 min. After MEF exclusion, the cell number was determined using a Countess™ automated cell counter (Thermo Fisher Scientific) and Trypan Blue staining to assess cell viability. The cells were then resuspended in N2B27 media containing 10 μM Y-27632 (aggregation medium) and 3.0×10^4 cells were seeded onto a microwell array included into a well of a 96-well plate. The cells were allowed to form aggregates inside the microwell for a period ranging from 0 to 24 hours depending on the cell lines and based on their propensity for aggregation. Subsequently, the aggregation medium was replaced with PALLY medium-N2B27 supplemented with PD0325901 (1 μM), A 83-01 (1 μM, MedChemExpress, HY-10432), hLIF (10 ng/ml), 1-Oleoyl lysophosphatidic acid sodium salt (LPA) (500 nM, Tocris, 3854) and Y27632 (10 μM). The PALLY medium was refreshed every 24 hours. After 48 hours, the PALLY medium was replaced with N2B27 medium containing 500 nM LPA and 10 μM Y-27632. At 96 hours, a blastoid is defined based on morphological similarity to B6 staged human blastocyst, as a structure composed of a monolayered cyst with an overall diameter of 150-250 μm comprising one inner cell cluster. We also verified that, beyond the morphology, blastoids form analogs of the three blastocyst cell lineages in the sequential and timely manner of blastocyst development. […] The effect of LPA, NAEPA (Sigma-Aldrich, N0912) and Verteporfin (Selleck Chemicals Llc, S1786) on the yield of blastoid formation was assessed by culturing naive hPSC aggregates in PALY medium complemented with molecules added every day from 0 to 96 hours. The Verteporfin treatment was executed without exposure to the light. The effect of the aPKC inhibitor CRT0103390 (Gift from the laboratory of Kathy Niakan) was assessed by culturing naive hPSC aggregates in PALLY medium complemented with 2 μM CRT0103390 every day from 0 to 96 hours. The formation of trophospheres was induced by culturing naive hPSC aggregates in PALLY medium complemented with 2 μM XMU-MP-1 (Med Chem Express, HY-100526) or 3 μM SC-144 (Axon, 2324) every day from 0 to 96 hours. The BSA concentration was titrated within the range of 0-0.3% for individual cell lines used for the formation of the blastoids and trophospheres.
The phase contrast images were acquired using Thermo Fisher scientific EVOS cell imaging system and inverted wide field microscope Axio VertA1. The number of blastoids or cavitated structures were counted manually for each well. After 96 hours, a blastoid is defined based on the morphological parameters as described in previous sections. The fluorescent images and timelapse images were acquired using Olympus IX83 microscope with Yokogawa W1 spinning disk (Software: CellSense 2.3; camera: Hamamatsu Orca Flash 4.0) or Nikon Eclipse Ti E inverted microscope, equipped with a Yokogawa W1 spinning disc (Software: Visiview 4.5.0.7; camera: Andor Ixon Ultra 888 EMCCD). The confocal images were analyzed and display images were exported using FIJI 1.53k or Bitplane Imaris 9.7.0 softwares. For cell counting, Bitplane Imaris software was used. Cell count parameters were set for size and fluorescence strength of voxels and then overall cell count data was obtained for each image using Imaris's spot function. Note that large cavities in blastoids increase the depth of the imaging field causing poor signal from deeply located cells. Therefore, our counting data in FIG. 8H could be underrepresented values, particularly in the case of trophectoderm cells. The quantification of the percentage of blastoids forming the NR2F2 axis was done manually. […]

[1] = system: Open Face Endometrial Layer (OFEL); assay: In vitro implantation assay: attachment of blastoids or trophospheres onto OFELs; conditions: for potential of endometrial cells to interact with human blastoids: EPC stimulation combined with the Wnt inhibitor
Protocol: (§1) Endometrial organoids were passaged as described in the previous section. The dissociated cells were resuspended in Matrigel supplemented with Y-27632 (10 μM), cell suspension was deposited in 48-well plates and were cultured in endometrial expansion medium for 2 days. The organoids were stimulated first with E2 (10 nM, Sigma-Aldrich, E2758) for 2 days, followed by the mixture of E2 (10 nM), P4 (1 μM, Sigma-Aldrich, P8783), and CAMP (250 μM, Biolog, B 007) with or without XAV939 (10 µM) (EPC or EPCX respectively) for 4 days. For OFELs culture, organoids were recovered from the matrigel droplets with ice-cold DMEM/F12 and mechanical pipetting. The organoids were dissociated using TrypLE and mechanically triturated to generate single cells and seeded at the density of 3 to 3.5×10^4 cells per well into a 96-well glass bottom plate (Cellvis, P96-1.5H-N) and cultured for 2-3 days with stimulation. For contraceptive treatment, levonorgestrel (LNG) (10 μM, Sigma-Aldrich, PHR1850) was added every day to the medium two days after hormonal stimulation and continued until the end of experiment.
Confluent OFELs were prepared for the implantation assay at least 2 hours prior to the deposition of blastoids, trophospheres, naive hPSCs or hTSCs aggregates by washing the OFEL two times with DMEM/F12 and adding IVC medium (Xiang, L. et al. Nature 577, 537-542 (2020)). Structures were then transferred onto the OFELs using a mouth pipette under an inverted microscope. After 24-48 hours, the medium was removed, the well was washed with PBS, fixed using 4% formaldehyde for 30 minutes at room temperature and subsequently processed for immunofluorescence staining. The percentage of attached structures was reported as the percentage of total transferred structures.

[2] = system: endometrial cells (open-faced endometrial layer, OFEL); assay: qRT-PCR of window-of-implantation markers in endometrial cells (OFELs); conditions: for expression of the gene PAEP (marker of the WOI): endometrial cells, Wnt inhibition
Protocol: as §1
RNA was extracted using the RNeasy mini kit (Qiagen, 74106) and cDNA synthesis was performed using the Superscript III (Invitrogen, 18080093) enzyme. qPCR reactions were performed using GoTaq® qPCR Master Mix (Promega, A6001) on CFX384 Touch Real-Time PCR Detection System (Bio-rad). Quantification was performed using Microsoft Office Excel by applying the comparative Cycle threshold (Ct) method. Relative expression levels were normalized to GAPDH.

What does the source list for “1-Oleoyl lysophosphatidic acid sodium salt [LPA]”?
effect on blastoid formation / yield of blastoids (naive hPSC aggregates; sodium salt): increases; also recorded: significantly improved efficiency; also recorded: enhanced blastoid formation; morphology of hPSC aggregates upon stimulation (naive hPSC aggregates): leads to the transition from a solid aggregate of cells to a cystic structure including a single fluid-filled cavity

Cc1ccc2nc(NC(=O)CSc3nc4c(c(=O)n3-c3ccccc3)SCC4)sc2c1 [IWP-2] was tested. Which “potential of endometrial cells to interact with human blastoids” value (“potential of endometrial cells” below) [1] did it give?
Its value is “increases the potential of endometrial cells to interact with human blastoids”.

How did the “expression of the gene PAEP (marker of the WOI)” value [2] turn out when Cn1ncnc2c(=O)n(C)c(=O)nc1-2 [PKF118-310] was run?
The value was “increase the expression of the gene PAEP”.

With Cc1ccc(/C=N/NC(=O)c2ccccc2Oc2ccccc2)o1 [PNU-74654] as the compound, how does the “potential of endometrial cells” value [1] read?
The value was “increases the potential of endometrial cells to interact with human blastoids”.

How did the “blastoid formation with alternative TGF-b inhibitor” value (naive hPSC aggregates; 1 μM SB431542 for 4 days in combination with PLLY) turn out when NC(=O)c1ccc(-c2nc(-c3ccc4c(c3)OCO4)c(-c3ccccn3)[nH]2)cc1 [SB431542] was run?
The value was “also work”.

What does the source list for O=C(NNc1nc2cc(F)ccc2n2cccc12)c1cnccn1 [SC144]?
formation of blastoids versus trophospheres (naive hPSC aggregates): a decrease in the formation of blastoids and an increase in the formation of trophospheres; also recorded: induces the formation of trophospheres with limited or no epiblast-like cells and hypoblast-like cells; also recorded: yielded trophospheres; formation of blastoids versus trophospheres (naive hPSC aggregates; listed as SC-144): induced the formation of mono-layer cavitated aggregate that does not form an inner cluster of Epi-/Hypo-like cells; maturation of lineage specification of outer trophectoderm cells (naive hPSC aggregates; SC-144 treatment): compromised; attachment of trophospheres to stimulated endometrial cells (OFELs) ([1]; trophospheres formed using 3 μM SC144): fail to attach and invade stimulated endometrial cells; also recorded: largely fail to attach and to invade the endometrial layer; also recorded: failed to attach to OFELs

Which “expression of PAEP, SPP1, LIF and DPP4 (RTqPCR)” value ([2]; endometrial cells cultured with XAV939) does the source give for Oc1nc(-c2ccc(C(F)(F)F)cc2)nc2c1CSCC2 [XAV939] here?
The value was “increases the expression of PAEP, SPP1, LIF and DPP4”.

And the “expression of the gene PAEP (marker of the WOI)” value [2]?
The value was “increase the expression of the gene PAEP”.

What about the “potential of endometrial cells” value [1] of the same compound?
Its value is “increases the potential of endometrial cells to interact with human blastoids”.

CN1C(=O)c2sccc2N(C)c2nc(Nc3ccc(S(N)(=O)=O)cc3)ncc21 [XMU-MP-1] was tested. Which formation of trophospheres (naive hPSC aggregates; 2 μM XMU-MP-1 in PALLY medium for 4 days (0 to 96 hours)) did it give?
The formation of trophospheres was “results in the formation of trophospheres; also recorded: induces the formation of trophospheres with limited or no epiblast-like cells and hypoblast-like cells; also recorded: yielded trophospheres”.

What about the “attachment of trophospheres to stimulated endometrial cells (OFELs)” value ([1]; trophospheres formed using 2 μM XMU-MP-1) of the same compound?
Its value is “fail to attach and invade stimulated endometrial cells; also recorded: largely fail to attach and to invade the endometrial layer; also recorded: failed to attach to OFELs”.

How did the “blastoid formation efficiency versus LIF concentration” value (naive hPSC aggregates; dose dependent effect of LIF) turn out when “LIF: leukemia inhibitory factor, STAT3 agonist” was run?
The value was “blastoid formation efficiency increased with LIF concentration”.

Which results are given for “N-[2-(phosphonooxy)ethyl]-9Z-octadecenamide [NAEPA]”?
effect on blastoid formation / yield of blastoids (naive hPSC aggregates): increases; also recorded: enhanced blastoid formation; morphology of hPSC aggregates upon stimulation (naive hPSC aggregates): leads to the transition from a solid aggregate of cells to a cystic structure including a single fluid-filled cavity

Which “formation of a cavity” value (naive hPSC aggregates; aggregate of hPSCs treated with Verteporfin, 1 μM) does the source give for Verteporfin here?
Its value is “totally prevents the formation of a cavity”.

And the “effect on blastoid formation / yield of blastoids” value (naive hPSC aggregates)?
The value was “decreases; also recorded: prevented blastoid formation”.
